Laboratory results: patent publication US8853409B2, “Pyridin-2yl-amino-1, 2, 4-thiadiazole derivatives as glucokinase activators for the treatment of diabetes mellitus” (Array BioPharma Inc., priority 2007, dated 2014)

Assay: Mouse PK study (oral pharmacokinetics)
Assay type: in vivo
Settings: male, 10 mg/kg, CD-1 mice, plasma, read-out: AUC indicator (oral AUC)
Protocol: Oral pharmacokinetics of each of the compounds shown in Table 1 (“test compound”) were determined as follows.
Test compound was formulated in PEG400:ethanol:saline (40:20:40, by volume) for IV administration and in 30% Captisol in water for both IV and PO administration in CD-1 mice. Labetalol was used as an internal standard for the LC-MS/MS assay of the CD-1 mouse samples.
Adult male CD-1 mice were obtained from Charles River Laboratories in Portage, Mich. At the time of study-start, each CD-1 mouse weighed approximately 30 grams and was between the ages of 7-9 weeks. All CD-1 mice were acclimated to the Array BioPharma Inc. vivarium for at least 5 days prior to administration of an IV dose by way of a tail vein injection (5 mL/kg) or a PO dose by oral gavage (10 mL/kg).
Animals were euthanized by CO2 inhalation and blood samples were collected by cardiac puncture into syringes containing a 1.5% EDTA solution in water (w/v; pH was titrated to 7.4 with 5 N NaOH; the final ratio of blood to EDTA was approximately […]) as the anticoagulant. Plasma was harvested from blood samples by centrifugation and stored at −20° C. until analysis. The following time points were collected for the IV arm: 0.017, 0.083, 0.25, 0.5, 1, 2, 4, 8, 12 and 24 hours post dose. The following time points were collected for the PO arm: 0.25, 0.50, 1, 4, 8, and 24 hours post dose.
Protein was precipitated from 20 μL of mouse plasma with the addition of 200 μL of 0.1% acetic acid in acetonitrile. A single 12-point calibration curve was prepared by first serially diluting (3-fold) a 40-μg/mL stock solution of the test compound in acetonitrile. Naive CD-1 mouse plasma (20 μL) was then added to each standard solution (200 μL). A stock solution of the internal standard (Labetalol; 180 μL of 0.1 μg/mL in acetonitrile) was subsequently added to each standard and sample solution, for a total volume of 400 μL. Samples were vortex-mixed for 5 minutes and spun in an Allegra X-12R centrifuge (Beckman Coulter, Fullerton, Calif.) for 15 minutes at approximately 1,500×g at 4° C. A 100-μL aliquot of each supernatant was transferred via a 550 μL Personal Pipettor (Apricot Designs, Monrovia, Calif.) to 96-well plates and diluted 1:1 with HPLC grade water. The resulting plates were sealed with plate mats and analyzed by LC-MS/MS.
The LC-MS/MS system was comprised of an HTC-PAL autosampler (Leap Technologies, Inc., Carrboro, N.C.), an HP1100 HPLC (Agilent Technologies Inc., Santa Clara, Calif.), and an API4000 triple quadrupole mass spectrometer (Applied Biosystems, Foster City, Calif.). Chromatographic retention of the analyte and internal standard was achieved using a Betasil Phenyl-Hexyl column (2.1×30 mm, 3 μm particle size, Thermo Scientific) in conjunction with gradient conditions using mobile phases A (aqueous 0.1% formic acid and 1% IPA) and B (0.1% formic acid in acetonitrile). The total run time, including re-equilibration time, for a single injection was 3.5 minutes. Mass spectrometric detection of the analytes was accomplished using ESI+ ionization mode. Ion current was optimized during infusion of a stock solution of the test compound. Analyte responses were measured by multiple reaction monitoring (MRM) of transitions unique to each compound.
Data were acquired and processed using the Applied Biosystems Analyst software (version 1.4.2). Calibration was achieved by plotting the peak area ratios of analyte to internal standard as a function of the normal concentrations of standard samples. A calibration model was generated by quadratic regression of the calibration curve with a weighting factor of 1/x. The model was used to calculate the concentrations in all samples. The lower limit of quantitation (LLOQ) for this analysis was in the single-digit μg/mL range (either 2.03 or 6.10 μg/mL).
Pharmacokinetic parameters were calculated by established non-compartmental methods using an in-house Excel® (Microsoft Corporation, Redmond, Wash.) macro, PK Toolbox version 2.0. […]

In the case of `Cc1ncccc1Oc1cc(Sc2ccccn2)cnc1Nc1nc([C@H](O)CO)ns1.Cl` [Example 134, (S)-1-(5-(3-(2-methylpyridin-3-yloxy)-5-(pyridin-2-ylthio)pyridin-2-ylamino)-1,2,4-thiadiazol-3-yl)ethane-1,2-diol hydrochloride], the AUC is reported as 10000 to 20000 ng·h/mL.

For `Cc1ccc(Oc2cc(Sc3ccccn3)cnc2Nc2nc([C@H](O)CO)ns2)c(C)n1.Cl` [Example 135, (S)-1-(5-(3-(2,6-dimethylpyridin-3-yloxy)-5-(pyridin-2-ylthio)pyridin-2-ylamino)-1,2,4-thiadizol-3-yl)ethane-1,2-diol hydrochloride], the AUC was 5000 to 10000 ng·h/mL.

For `Cc1ncccc1Oc1cc(SCC2CC2)cnc1Nc1nc([C@H](O)CO)ns1.Cl` [Example 136, (S)-1-(5-(5-(cyclopropylmethylthio)-3-(2-methylpyridin-3-yloxy)pyridin-2-ylamino)-1,2,4-thiadizol-3-yl)ethane-1,2-diol hydrochloride], the AUC was 10000 to 20000 ng·h/mL.

`CCc1ncccc1Oc1cc(Sc2ccccn2)cnc1Nc1nc([C@H](O)CO)ns1` [Example 137] gave an AUC of 5000 to 10000 ng·h/mL.

Compound `COCCCSc1cnc(Nc2nc([C@H](O)CO)ns2)c(Oc2cccnc2C)c1.Cl` [Example 138, (S)-1-(5-(5-(3-methoxypropylthio)-3-(2-methylpyridin-3-yloxy)-pyridin-2-ylamino)-1,2,4-thiadizol-3-yl)ethane-1,2-diol hydrochloride] has an AUC of 1000 to 5000 ng·h/mL.

With `CCn1nccc1Oc1cc(Sc2ccccn2)cnc1Nc1nc([C@H](O)CO)ns1.Cl` [Example 139, (S)-1-(5-(3-(1-Ethyl-1H-pyrazol-5-yloxy)-5-(pyridin-2-ylthio)pyridin-2-ylamino)-1,2,4-thiadiazol-3-yl)ethane-1,2-diol hydrochloride] the AUC was greater than 20000 ng·h/mL.

For `CCn1nccc1Oc1cc(Sc2ccccn2)cnc1Nc1nc([C@H](O)C(C)(C)O)ns1.Cl` [Example 140, (S)-1-(5-(3-(1-ethyl-1H-pyrazol-5-yloxy)-5-(pyridin-2-ylthio)pyridin-2-ylamino)-1,2,4-thiadiazol-3-yl)-2-methylpropane-1,2-diol], the AUC was greater than 20000 ng·h/mL.

For `Cc1cccnc1Sc1cnc(Nc2nc([C@H](O)CO)ns2)c(Oc2cccnc2C)c1.Cl` [Example 141, (S)-1-(5-(5-(3-methylpyridin-2-ylthio)-3-(2-methylpyridin-3-yloxy)pyridin-2-ylamino)-1,2,4-thiadiazol-3-yl)ethane-1,2-diol hydrochloride], the AUC was 1000 to 5000 ng·h/mL.

`Cc1ccnc(C)c1Oc1cc(Sc2ccccn2)cnc1Nc1nc([C@H](O)CO)ns1.Cl` [Example 142, (S)-1-(5-(3-(2,4-dimethylpyridin-3-yloxy)-5-(pyridin-2-ylthio)pyridin-2-ylamino)-1,2,4-thiadiazol-3-yl)ethane-1,2-diol hydrochloride] showed an AUC of 1000 to 5000 ng·h/mL.

In the case of `Cc1ncccc1Oc1cc(Sc2ccccn2)cnc1Nc1nc([C@H](O)C(C)(C)O)ns1.Cl` [Example 143, (S)-2-methyl-1-(5-(3-(2-methylpyridin-3-yloxy)-5-(pyridin-2-ylthio)pyridin-2-ylamino)-1,2,4-thiadiazol-3-yl)propane-1,2-diol hydrochloride], the AUC is reported as greater than 20000 ng·h/mL.

For `COCCSc1cnc(Nc2nc([C@H](O)CO)ns2)c(Oc2cccnc2C)c1.Cl` [Example 144, (S)-1-(5-(5-(2-methoxyethylthio)-3-(2-methylpyridin-3-yloxy)pyridin-2-ylamino)-1,2,4-thiadiazol-3-yl)ethane-1,2-diol hydrochloride], the AUC was 5000 to 10000 ng·h/mL.

`CCc1ncccc1Oc1cc(Sc2ccccn2)cnc1Nc1nc([C@H](O)[C@@H](O)COC)ns1.Cl` [Example 145, (1S,2S)-1-(5-(3-(2-ethylpyridin-3-yloxy)-5-(pyridin-2-ylthio)pyridin-2-ylamino)-1,2,4-thiadiazol-3-yl)-3-methoxypropane-1,2-diol hydrochloride] showed an AUC of 5000 to 10000 ng·h/mL.

`Cc1nn(C)c(C)c1Oc1cc(Sc2ccccn2)cnc1Nc1nc([C@H](O)C(C)(C)O)ns1.Cl` [Example 146, (S)-2-methyl-1-(5-(5-(pyridin-2-ylthio)-3-(1,3,5-trimethyl-1H-pyrazol-4-yloxy)pyridin-2-ylamino)-1,2,4-thiadiazol-3-yl)propane-1,2-diol hydrochloride] gave an AUC of 10000 to 20000 ng·h/mL.

In the case of `Cc1nn(C)c(C)c1Oc1cc(Sc2ccccn2)cnc1Nc1nc([C@H](O)CO)ns1.Cl` [Example 147, (S)-1-(5-(5-(pyridin-2-ylthio)-3-(1,3,5-trimethyl-1H-pyrazol-4-yloxy)pyridin-2-ylamino)-1,2,4-thiadiazol-3-yl)ethane-1,2-diol hydrochloride], the AUC is reported as 1000 to 5000 ng·h/mL.

In the case of `COCCSc1cnc(Nc2nc([C@H](O)CO)ns2)c(Oc2c(C)nn(C)c2C)c1.Cl` [Example 148, (S)-1-(5-(5-(2-methoxyethylthio)-3-(1,3,5-trimethyl-1H-pyrazol-4-yloxy)pyridin-2-ylamino)-1,2,4-thiadiazol-3-yl)ethane-1,2-diol hydrochloride], the AUC is reported as 1000 to 5000 ng·h/mL.

`Cc1ncccc1Oc1cc(Sc2ccccn2)cnc1Nc1nc([C@@H](O)CO)ns1` [Example 149, (R)-1-(5-(3-(2-methylpyridin-3-yloxy)-5-(pyridin-2-ylthio)pyridin-2-ylamino)-1,2,4-thiadiazol-3-yl)ethane-1,2-diol] gave an AUC of 5000 to 10000 ng·h/mL.

`Cc1ncccc1Oc1cc(Sc2ccccn2)cnc1Nc1nc([C@](C)(O)CO)ns1.Cl` [Example 150, (S)-2-(5-(3-(2-methylpyridin-3-yloxy)-5-(pyridin-2-ylthio)pyridin-2-ylamino)-1,2,4-thiadiazol-3-yl)propane-1,2-diol hydrochloride] showed an AUC of 10000 to 20000 ng·h/mL.

Compound `Cc1ncccc1Oc1cc(Sc2ccccn2)cnc1Nc1nc([C@@](C)(O)CO)ns1.Cl` [Example 151, (R)-2-(5-(3-(2-methylpyridin-3-yloxy)-5-(pyridin-2-ylthio)pyridin-2-ylamino)-1,2,4-thiadiazol-3-yl)propane-1,2-diol hydrochloride] has an AUC greater than 20000 ng·h/mL.
